Test results as given in patent publication US12421269B2, “SGLT2/DPP4 inhibitor and application thereof” (CGeneTech (Suzhou, China) CO., Ltd., priority 2019, dated 2025).

Columns and labels:
[1] = molecular target: recombinant human dipeptidyl peptidase 4 (rhDPP4) (Homo sapiens, UniProt P27487); assay: rhDPP4 inhibitor screening experiment; format: biochemical; details: Gly-Pro-aminofluorescein substrate, 1 hour at room temperature
From the text: To evaluate the inhibitory activity of compounds against recombinant human dipeptidyl peptidase 4 (rhDPP4) by measuring the half-inhibitory concentration (IC50) values of the compounds. In the experiment, rhDPP4 was used to catalyze the generation of […] from substrate, the substrate was a luminescent precursor […], and the substrate and luciferase were reacted to generate a light signal, the intensity of the light signal was proportional to the enzyme activity.
• 1) The gradient diluted compounds (4-fold fold-dilution, 10 assay concentrations) were transferred 250 nL into a 384-well plate (PerkingElmer-6007299) using a non-contact nano-acoustic pipetting system (ECHO), and dimethyl sulfoxide (DMSO) concentration was 0.5% in the final reaction system. Blank control wells (containing DMSO, substrate and 10 mM Tris-HCl) and positive control wells (containing DMSO, substrate and rhDPP4) were set up. • 2) The pre-dispensed frozen buffer containing luciferase was removed and restored to room temperature, and then the substrate was added to configure a working solution with a substrate concentration of 20 μM. RhDPP4 was prepared as a working solution of 0.2 ng/mL using 10 mM Tris-HCl (pH 8.0) aqueous solution. • 3) 25 μL of working solution containing 20 μM substrate and 25 μL of working solution containing 0.2 ng/mL rhDPP4 were added to a 384-well plate with the addition of the compound, then the mixture was centrifuged for 30 s at 1000 rpm, the plate was sealed with aluminum foil sealing film and incubated for 1 hour at room temperature. • 4) The intensity of the light signal was detected by EnVision, a multifunctional microplate reader. The raw data were used to calculate the inhibition of rhDPP4 activity by the compound. % of inhibition activity=100−(compound well signal value−blank control well signal value)/(positive control well signal value−blank control well signal value)*100. • The percent of inhibition was imported into GraphPad Prism software for data processing to derive the corresponding dose-effect curves and to derive the IC50 values of the tested compounds.

[2] = In vivo DMPK study in mice; details: male C57 mice; for Oral DNAUC (AUCPO/Dose): 10 mg/kg oral; for bioavailability / Cmax / clearance / half-life / Vd: mouse, plasma; for bioavailability: 1 mg/kg intravenous and 10 mg/kg oral, read-out: F % (oral bioavailability); for Cmax / clearance / half-life / Vd: single dose, 1 mg/kg intravenous or 10 mg/kg oral; for clearance: read-out: Cl (clearance rate); for half-life: read-out: T1/2 (half-life) (converted); for Vd: read-out: Vdss (volume of distribution)
From the text: Experimental purpose: Male C57 mice were used as test animals to determine blood concentrations of compounds and assess pharmacokinetic behavior after a single dose.
Experimental procedure: Six healthy adult male C57 mice were selected, three of them for the intravenous injection group and three of them for the oral group. The compounds to be tested were mixed with an appropriate amount of intravenous injection group solvent (20% polyethylene glycol-400 (PEG400)/10% polyethylene glycol-15 hydroxystearate (solutol)/70% H2O), the mixture was vortexed and sonicated to obtain 1 mg/mL clarified solution, then the clarified solution was filtered through a microporous membrane and prepared for use; solvent for the oral group was 20% polyethylene glycol-400 (PEG400)/10% polyethylene glycol-15 hydroxystearate (solutol)/70% H2O, and the compounds to be tested were mixed with the solvent, then the mixture was vortexed and sonicated to obtain 1 mg/mL clarified solution. After 1 mg/kg intravenous administration or 10 mg/kg oral administration in mice, whole blood was collected for a certain period of time, then the plasma was prepared to obtain, and the drug concentration was analyzed by LC-MS/MS method, then the pharmacokinetic parameters were calculated using Phoenix WinNonlin software (Pharsight, USA).

[3] = test system: SD Rat; assay: Oral glucose tolerance (OGTT) in rats; format: in vivo; details: male SD rats, single gavage dose, Canagliflozin 3 mg/kg, test compound 10 mg/kg
Procedure: The animals will be acclimatized in the animal room for 1 week after arrival at the facility.
The animals are fasted for 16 hours in the metabolic cage and given the drug or solvent (5 mL/kg) according to the table above, followed immediately by 50% glucose solution (2 g/kg, 4 mL/kg).
After 1 hour of glucose administration, the animals resumed feeding, and blood samples were collected at 0 min, 20 min, 40 min, 60 min, 90 min and 120 min for blood glucose measurement; urine at 0 to 24 hours was used for urinary glucose (mg/200 g) and urine volume test, respectively.
All values were expressed as mean values. Statistical analysis was performed using Graphpad Prism 6 single factor analysis of variance Tukey's multiple comparison test. The p-value less than 0.05 was considered statistically significant.

recombinant human dipeptidyl peptidase 4 (rhDPP4), sequence (P27487 whole entry): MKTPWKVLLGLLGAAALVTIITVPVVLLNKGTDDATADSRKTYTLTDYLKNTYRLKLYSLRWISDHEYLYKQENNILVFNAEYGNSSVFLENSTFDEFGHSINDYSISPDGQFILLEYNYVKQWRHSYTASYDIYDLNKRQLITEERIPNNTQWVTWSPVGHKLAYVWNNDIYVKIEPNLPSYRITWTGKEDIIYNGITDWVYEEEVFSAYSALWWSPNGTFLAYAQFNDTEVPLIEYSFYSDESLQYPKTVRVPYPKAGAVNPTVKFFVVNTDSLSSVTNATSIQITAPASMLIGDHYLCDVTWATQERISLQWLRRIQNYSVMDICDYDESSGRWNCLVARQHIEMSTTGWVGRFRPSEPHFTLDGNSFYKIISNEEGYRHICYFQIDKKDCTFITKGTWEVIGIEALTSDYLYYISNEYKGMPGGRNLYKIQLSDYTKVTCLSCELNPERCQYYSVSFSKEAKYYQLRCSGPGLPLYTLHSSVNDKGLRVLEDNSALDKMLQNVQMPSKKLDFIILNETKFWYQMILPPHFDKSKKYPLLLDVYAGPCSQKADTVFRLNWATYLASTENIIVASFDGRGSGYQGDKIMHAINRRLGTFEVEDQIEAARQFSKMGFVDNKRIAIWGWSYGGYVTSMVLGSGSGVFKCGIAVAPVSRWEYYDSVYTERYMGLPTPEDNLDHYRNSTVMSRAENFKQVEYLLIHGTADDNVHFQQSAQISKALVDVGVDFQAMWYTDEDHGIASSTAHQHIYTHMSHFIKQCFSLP

IC50 [1] | Oral DNAUC (AUCPO/Dose) [2] | bioavailability [2] | Cmax [2] | clearance [2] | half-life [2] | Vd [2] | SMILES | OGTT blood glucose levels AUC0-2hr ([3]; glucose 2 g/kg) | Urinary glucose level ([3]; urine 0 to 24 hours) | Urine volume ([3]; urine 0 to 24 hours)
26.9 nM | 151.3 nM · h/mpk | 18.7% | 250 nM | 29.1 mL/min/kg | 10.5 h | 12 L/kg | CS[C@H]1O[C@@H](c2cc(Cc3ccc(O[C@@H]4CCN([C@H]5CO[C@H](c6cc(F)ccc6F)[C@@H](N)C5)C4)cc3)c(F)cc2F)[C@H](O)[C@@H](O)[C@@H]1O [WX006] | – | – | –
31 nM | 194.8 nM · h/mpk | 21.4% | 308 nM | 31.4 mL/min/kg | 7.39 h | 12.2 L/kg | CS[C@H]1O[C@@H](c2ccc(F)c(Cc3ccc(O[C@@H]4CCN([C@H]5CO[C@H](c6cc(F)ccc6F)[C@@H](N)C5)C4)cc3)c2)[C@H](O)[C@@H](O)[C@@H]1O [WX001] | 869 mmol/L/min | 0.7 mg/200 gBW | 10.6 mL/200 gBW
